The test deals with LMP1 expression in Kem I cells. Nature of the test: microbe, parasite or virus in culture. The format is cell-based, EBV. To be noted: for fold induction at 2.5 µM: human gammaherpesvirus 4, 48 h.
Setting [1] is: read-out: Average LMP1 Fold Increase, Kem I cells, dose 2.5 uM, 48 hours, LMP1 transcript by in-well qRT-PCR, average of the two replicates.
The mark [2] stands for this setting: read-out: Replicate 1-LMP1 Fold Increase, Kem I cells, dose 2.5 uM, 48 hours, LMP1 transcript by in-well qRT-PCR, screen replicate 1.
Where [3] appears, read: read-out: Replicate 2-LMP1 Fold Increase, Kem I cells, dose 2.5 uM, 48 hours, LMP1 transcript by in-well qRT-PCR, screen replicate 2.
The mark [4] stands for this setting: Kem I cells, dose 2.5 uM, 48 hours, LMP1 transcript by in-well qRT-PCR, average of the two replicates.
Where [5] appears, read: Kem I cells, dose 2.5 uM, 48 hours, LMP1 transcript by in-well qRT-PCR, screen replicate 1.
[6] abbreviates: Kem I cells, dose 2.5 uM, 48 hours, LMP1 transcript by in-well qRT-PCR, screen replicate 2.

Each structure is given as a SMILES string. Where a name gives a salt, the structure may show the parent alone. Read-outs that look alike come from different tables or passages of the source.

Turning to `Cc1c(Cl)cccc1Nc1ccccc1C(=O)O` [Tolfenamic Acid], the fold induction at 2.5 µM amounted to 0.15 under setting [1], 0.11 under setting [2] and 0.2 under setting [3].

On to `Cc1ccccc1C(=O)Nc1ccc(C(=O)N2CCCC(O)c3cc(Cl)ccc32)c(C)c1` (stereo not drawn) [Tolvaptan], for which the fold induction at 2.5 µM reads like this: under setting [1], 4.67; under setting [2], 1.11; under setting [3], 8.24.

For the compound `CCOC(=O)N1c2ccc(C(F)(F)F)cc2[C@@H](N(Cc2cc(C(F)(F)F)cc(C(F)(F)F)c2)C(=O)OC)C[C@H]1CC` [Torcetrapib], the fold induction at 2.5 µM runs as follows: under setting [1], 0.5; under setting [2], 0.4; under setting [3], 0.6.

Take `CN(C)CCOc1ccc(/C(=C(/CCCl)c2ccccc2)c2ccccc2)cc1` [Toremifene Citrate]: the fold induction at 2.5 µM by setting is: under setting [1], 0.54; under setting [2], 0.55; under setting [3], 0.54.

As for `CC(C)C[C@@H](C(=O)N[C@H](C(=O)OC1CCCC1)c1ccccc1)[C@H](O)C(=O)NO` [Tosedostat (CHR2797)], the “Average LMP1 Fold Increase” value under setting [4] was 0.64 fold. In addition, under setting [5], the “Replicate 1-LMP1 Fold Increase” value was 0.56 fold. The “Replicate 2-LMP1 Fold Increase” value under setting [6] was 0.72 fold.

For the compound `Cn1c(=O)cc(N2CCC[C@@H](N)C2)n(Cc2cc(F)ccc2C#N)c1=O` [Trelagliptin], the fold induction at 2.5 µM reads like this: under setting [1], 0.63; under setting [2], 0.96; under setting [3], 0.31.

Consider `Nc1nc(N)c2nc(-c3ccccc3)c(N)nc2n1` [Triamterene], for which the fold induction at 2.5 µM by setting is: under setting [1], 0.91; under setting [2], 0.56; under setting [3], 1.26.

For the compound `CC(/C=C/C(=O)NO)=C\[C@@H](C)C(=O)c1ccc(N(C)C)cc1` [Trichostatin A (TSA)], the “Average LMP1 Fold Increase” value under setting [4] worked out at 88.29 fold. Besides, under setting [5], the “Replicate 1-LMP1 Fold Increase” value came to 44.18 fold. The “Replicate 2-LMP1 Fold Increase” value under setting [6] turned out to be 132.40 fold.

Regarding `CCC(COC(=O)c1cc(OC)c(OC)c(OC)c1)(c1ccccc1)N(C)C` (stereo not drawn) [Trimebutine], the fold induction at 2.5 µM came out at 1.37 under setting [1], 2.11 under setting [2] and 0.63 under setting [3].

As to `O=C(O[C@H]1C[C@H]2CC[C@@H](C1)[N+]21CCCC1)C(O)(c1ccccc1)c1ccccc1` [Trospium chloride], the fold induction at 2.5 µM under setting [1] was 0.35, the fold induction at 2.5 µM under setting [2] worked out at 0.33 and the fold induction at 2.5 µM under setting [3] was found to be 0.37.

As to `CC(C)(C)c1cc(/C=C(\C#N)C(N)=S)cc(C(C)(C)C)c1O` [Tyrphostin AG 879], the “Average LMP1 Fold Increase” value under setting [4] is reported as 0.74 fold. Moreover, the “Replicate 1-LMP1 Fold Increase” value under setting [5] is 0.53 fold. Besides, under setting [6], the “Replicate 2-LMP1 Fold Increase” value amounted to 0.95 fold.

For `CCO.N#CC(=C(/N)Sc1ccccc1N)/C(C#N)=C(\N)Sc1ccccc1N` [U0126-EtOH], the “Average LMP1 Fold Increase” value was found to be 0.58 fold, the “Replicate 1-LMP1 Fold Increase” value was determined as 0.51 fold and the “Replicate 2-LMP1 Fold Increase” value was determined as 0.65 fold.

For `O=C(c1cncc(Br)c1)N1CCC(N2CCCC2)CC1` [UNC669], the “Average LMP1 Fold Increase” value under setting [4] was 0.50 fold. Moreover, under setting [5], the “Replicate 1-LMP1 Fold Increase” value was found to be 0.75 fold. The “Replicate 2-LMP1 Fold Increase” value under setting [6] was 0.25 fold.

In the case of `CCCCNc1ncc(-c2ccc(CN3CCOCC3)cn2)c(NC2CCC(O)CC2)n1` (stereo not drawn) [UNC2250], the “Average LMP1 Fold Increase” value under setting [4] is on record as 0.41 fold. The “Replicate 1-LMP1 Fold Increase” value under setting [5] was found to be 0.54 fold. The “Replicate 2-LMP1 Fold Increase” value under setting [6] worked out at 0.29 fold.

For `NC(=O)c1cccc(-c2cccc(OC(=O)NC3CCCCC3)c2)c1` [URB597], the fold induction at 2.5 µM reads like this: under setting [1], 0.54; under setting [2], 0.52; under setting [3], 0.55.

Consider `CS(=O)(=O)c1ccc(-c2cnc(N)c(C(=O)Nc3ccccc3)n2)cc1` [VE-821], for which the fold induction at 2.5 µM by setting is: under setting [1], 0.17; under setting [2], 0.2; under setting [3], 0.14.

In the case of `CNCc1ccc(-c2cc(-c3nc(-c4ccc(S(=O)(=O)C(C)C)cc4)cnc3N)on2)cc1` [VE-822], the fold induction at 2.5 µM by setting is: under setting [1], 4.03; under setting [2], 3.28; under setting [3], 4.78.

For the compound `Cc1cc(Nc2cc(N3CCN(C)CC3)nc(Sc3ccc(NC(=O)C4CC4)cc3)n2)n[nH]1` [VX-680 (Tozasertib, MK-0457)], the “Average LMP1 Fold Increase” value under setting [4] is reported as 0.74 fold. Further, the “Replicate 1-LMP1 Fold Increase” value under setting [5] worked out at 0.96 fold. Further, under setting [6], the “Replicate 2-LMP1 Fold Increase” value came out at 0.52 fold.

As to `O=c1ncn2nc(Sc3ccc(F)cc3F)ccc2c1-c1c(Cl)cccc1Cl` [VX-745], the fold induction at 2.5 µM stood at 0.49 under setting [1], 0.75 under setting [2] and 0.24 under setting [3].

As for `CCO[C@@H]1OC(=O)C[C@@H]1NC(=O)[C@@H]1CCCN1C(=O)[C@@H](NC(=O)c1ccc(N)c(Cl)c1)C(C)(C)C` [VX-765], the fold induction at 2.5 µM under setting [1] was 0.41, the fold induction at 2.5 µM under setting [2] worked out at 0.45 and the fold induction at 2.5 µM under setting [3] came out at 0.37.

In the case of `Cc1ccc(NC(=O)C2(c3ccc4c(c3)OC(F)(F)O4)CC2)nc1-c1cccc(C(=O)O)c1` [VX-809 (Lumacaftor)], the “Average LMP1 Fold Increase” value under setting [4] is on record as 0.87 fold. In addition, the “Replicate 1-LMP1 Fold Increase” value under setting [5] is recorded as 0.55 fold. Moreover, the “Replicate 2-LMP1 Fold Increase” value under setting [6] is on record as 1.18 fold.

Regarding `COc1cc2/c(=N/c3ccc(Br)cc3F)nc[nH]c2cc1OCC1CCN(C)CC1` [Vandetanib (ZD6474)], under setting [4], the “Average LMP1 Fold Increase” value is recorded as 1.14 fold. The “Replicate 1-LMP1 Fold Increase” value under setting [5] came out at 0.81 fold. Moreover, the “Replicate 2-LMP1 Fold Increase” value under setting [6] turned out to be 1.47 fold.

As to `CCc1c(C(=O)C(N)=O)c2c(OCC(=O)O)cccc2n1Cc1ccccc1` [Varespladib (LY315920)], the “Average LMP1 Fold Increase” value under setting [4] was 0.52 fold. The “Replicate 1-LMP1 Fold Increase” value under setting [5] is 0.35 fold. Under setting [6], the “Replicate 2-LMP1 Fold Increase” value was 0.69 fold.

Regarding `C[C@]1(c2nc3c(C(N)=O)cccc3[nH]2)CCCN1` [Veliparib (ABT-888)], under setting [4], the “Average LMP1 Fold Increase” value stood at 1.08 fold. Under setting [5], the “Replicate 1-LMP1 Fold Increase” value is given as 0.71 fold. Moreover, the “Replicate 2-LMP1 Fold Increase” value under setting [6] came out at 1.45 fold.

`CCCS(=O)(=O)Nc1ccc(F)c(C(=O)c2c[nH]c3ncc(-c4ccc(Cl)cc4)cc23)c1F` [Vemurafenib (PLX4032, RG7204)]: the “Average LMP1 Fold Increase” value under setting [4] is reported as 0.41 fold. Under setting [5], the “Replicate 1-LMP1 Fold Increase” value worked out at 0.33 fold. The “Replicate 2-LMP1 Fold Increase” value under setting [6] is 0.50 fold.

Turning to `N#C[C@@H]1CCCN1C(=O)CNC12CC3CC(CC(O)(C3)C1)C2` [Vildagliptin (LAF-237)], the “Average LMP1 Fold Increase” value under setting [4] was 0.72 fold. The “Replicate 1-LMP1 Fold Increase” value under setting [5] turned out to be 0.58 fold. For the same compound, the “Replicate 2-LMP1 Fold Increase” value under setting [6] came out at 0.87 fold.

On to `C[C@@H](c1ncncc1F)[C@](O)(Cn1cncn1)c1ccc(F)cc1F` [Voriconazole], for which the fold induction at 2.5 µM runs as follows: under setting [1], 1.48; under setting [2], 1.02; under setting [3], 1.94.

For `c1ccc(NCc2ccc(CNc3ccccn3)cc2)nc1` [WZ811], the “Average LMP1 Fold Increase” value under setting [4] turned out to be 0.08 fold. In addition, the “Replicate 1-LMP1 Fold Increase” value under setting [5] was 0.08 fold. Further, the “Replicate 2-LMP1 Fold Increase” value under setting [6] is reported as 0.08 fold.

Consider `C=CC(=O)Nc1cccc(Oc2nc(Nc3ccc(N4CCN(C)CC4)cc3OC)ncc2Cl)c1` [WZ4002], for which, under setting [4], the “Average LMP1 Fold Increase” value was determined as 0.90 fold. For the same compound, the “Replicate 1-LMP1 Fold Increase” value under setting [5] is reported as 0.58 fold. Moreover, the “Replicate 2-LMP1 Fold Increase” value under setting [6] is given as 1.23 fold.

For the origin of these results see US20230053688A1, “METHODS TO ALTER LATENCY IN EBV+ MALIGNANCIES” (Cornell University, priority 2020, published 2023).
